Data on one compound can be found in publication PMC13254535, “The RecBCD complex interacts directly with the DNA sliding clamp in Escherichia coli” (Nucleic Acids Research, 2026).

Residues, ends and D or L forms follow the SMILES beside them.

Holding throughout (assay type): binding
Holding throughout (set-up): made in house

The target in assay [1] is T1, β-clamp (Escherichia coli, UniProt P0A988). As to the kind of experiment: 2D TROSY-1H-15N-HSQC chemical shift perturbation of β-clamp. The note with it: 140 µM 2H,13C,15N-labeled β-clamp, 700 µM peptide (five-fold molar excess); 37°C; 20 mM sodium phosphate, 100 mM NaCl, 5 mM DTT, 2% DMSO, pH 7.4. The protocol: (§1) Unlabeled and ^2H, ^13C, ^15N-labeled E. coli β-clamp was expressed and purified as previously described. The β-clamp concentration was determined by absorbance at 280 nm measured on a NanoDrop ND-1000 spectrophotometer (Thermo Fisher Scientific Inc.) and using an extinction coefficient calculated by the Expasy ProtParam web tool (https://web.expasy.org/protparam/). All β-clamp concentrations are listed as the protomer concentration. The peptides were readily soluble at micromolar concentration, although at high micromolar concentrations, we cannot rule out the presence of aggregates.
2D TROSY-^1H-^15N-HSQC (Two-Dimensional Transverse Relaxation Optimized Spectroscopy Heteronuclear Single Quantum Coherence experiment correlating ^1H and ^15N nuclei) spectra were recorded of 140 µM ^2H, ^13C, ^15N-labeled β-clamp with and without the addition of 700 µM RecB nuclease motif peptide ([…]) in 20 mM sodium phosphate, 100 mM NaCl, 5 mM DTT, 5% (v/v) D2O, 125 µM DSS, 2% (v/v) DMSO, pH 7.4. […] The samples were transferred to 5-mm Shigemi tubes, and the NMR spectra were recorded at 37°C on a Bruker Avance III 750 MHz spectrometer equipped with a cryoprobe. […] The spectra were processed in Topspin (Bruker) and analyzed in CcpNmr Analysis. […] Chemical shift perturbations (CSPs) were calculated using the following equation [57]: […]

For assay [2], the target named is T1, β-clamp. In words: Isothermal titration calorimetry (ITC), β-clamp titrated into peptide. The note with it: 25°C; pH 7.4; one-site model; n = 3; affected by inaccurate peptide concentration and methionine oxidation. The method, then:
as §1
Unlabeled β-clamp was buffer-exchanged into 20 mM sodium phosphate, 100 mM NaCl, 1 mM tris(2-carboxyethyl)phosphine (TCEP), pH 7.4 using a 15-ml spin filter (10 000 MWCO) (Millipore, Darmstadt, Germany). DMSO was added to the β-clamp sample to a final concentration of 0.02% (v/v). RecB nuclease motif peptide ([…]) (dissolved in 100% DMSO) was diluted into the same buffer as above, with a final DMSO concentration of 0.02% (v/v). […] The isothermal titration calorimetry (ITC) experiments were repeated three times and were recorded at 25°C on a Malvern MicroCal PEAQ-ITC instrument (Malvern, Worcestershire, United Kingdom) using a stir speed of 750 rpm. […]
Background: In ITC the heat of successive injections is recorded.

The target in assay [3] is T1, β-clamp. In words: Saturation transfer difference (STD)-NMR of peptides with β-clamp. Conditions: 150 µM peptide, 1.5 µM β-clamp; 25°C; 20 mM sodium phosphate, 100 mM NaCl, 5 mM DTT, 0.3% DMSO, 5% D2O, pH 7.4; 600 MHz.
Description: All peptides, except Pol III C-terminal ([sequence]), were N-terminally acetylated and C-terminally amidated to remove charges in the N-and C-termini, not present in the context of the full-length proteins.
Unlabeled and ^2H, ^13C, ^15N-labeled E. coli β-clamp was expressed and purified as previously described [54]. The β-clamp concentration was determined by absorbance at 280 nm measured on a NanoDrop ND-1000 spectrophotometer (Thermo Fisher Scientific Inc.) and using an extinction coefficient calculated by the Expasy ProtParam web tool (https://web.expasy.org/protparam/) [55]. All β-clamp concentrations are listed as the protomer concentration. The peptides were readily soluble at micromolar concentration, although at high micromolar concentrations, we cannot rule out the presence of aggregates.
Saturation transfer difference (STD)-nuclear magnetic resonance (NMR) experiments were performed at 25°C on a Bruker Avance III HD 600 MHz NMR spectrometer equipped with a 5-mm QCI Cryoprobe. […] Samples were transferred to 5-mm NMR tubes.

T1 sequence (P0A988 whole entry): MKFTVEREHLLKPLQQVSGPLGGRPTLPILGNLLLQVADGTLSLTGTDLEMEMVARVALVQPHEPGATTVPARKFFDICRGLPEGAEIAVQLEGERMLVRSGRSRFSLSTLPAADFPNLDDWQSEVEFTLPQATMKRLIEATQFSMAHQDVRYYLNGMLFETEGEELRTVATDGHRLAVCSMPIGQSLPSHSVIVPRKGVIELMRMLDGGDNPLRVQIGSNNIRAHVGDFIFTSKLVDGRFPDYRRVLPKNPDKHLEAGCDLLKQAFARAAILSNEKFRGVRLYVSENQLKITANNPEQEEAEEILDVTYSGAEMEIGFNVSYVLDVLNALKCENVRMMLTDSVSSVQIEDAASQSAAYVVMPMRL

Regarding `CSCC[C@H](NC(=O)[C@H](CCC(=O)O)NC(=O)[C@@H](NC(=O)[C@H](CCC(N)=O)NC(=O)[C@H](CCCCN)NC(C)=O)C(C)C)C(=O)N[C@@H](CCC(=O)O)C(=O)N[C@@H](Cc1ccccc1)C(=O)N[C@@H](Cc1ccc(O)cc1)C(N)=O` [QVEMEF] (Ac-KQVEMEFY-NH2), the “chemical shift perturbations (CSPs) of β-clamp residues” value at β-clamp [1] is “The largest CSPs localized to residues surrounding the canonical CBM binding pocket, including L177, Y244, V247, I317, S345, Q348, V361, M364, and R365”. Besides, at β-clamp [2], the “N-value (stoichiometry)” value is 0.39 ± 0.02. The STD-NMR binding result at β-clamp [3] was “shows a distinct STD signal, indicating specific interaction”.
